For orientation: Kd means a measure of binding affinity in units of concentration.

Active and inactive are the calls of the source. Rule as the data show it, for most assays here: actives have a measured Kd and inactives only a lower limit. Where only a bound is given, the exact number is not on record here.

From ChEMBL document CHEMBL3991601, “The target landscape of clinical kinase drugs” (Science, 2017) come the findings set out here.

Experiment [1] concerns the target Adenylate kinase 2, mitochondrial (Homo sapiens, UniProt P54819).
The target in experiment [2] is Cyclin-dependent kinase 6 (Homo sapiens, UniProt Q00534).
Chain of Cyclin-dependent kinase 6 (Q00534 whole entry): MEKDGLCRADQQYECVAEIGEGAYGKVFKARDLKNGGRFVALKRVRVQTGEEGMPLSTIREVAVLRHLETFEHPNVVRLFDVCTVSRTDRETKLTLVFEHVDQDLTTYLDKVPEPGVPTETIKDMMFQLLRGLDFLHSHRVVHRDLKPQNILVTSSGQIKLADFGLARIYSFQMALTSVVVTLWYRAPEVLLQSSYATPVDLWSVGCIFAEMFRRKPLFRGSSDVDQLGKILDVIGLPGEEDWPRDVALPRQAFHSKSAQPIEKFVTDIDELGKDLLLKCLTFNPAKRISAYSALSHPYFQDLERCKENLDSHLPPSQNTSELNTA
For experiment [3], the target named is Epidermal growth factor receptor (Homo sapiens, UniProt P00533).
Chain of Epidermal growth factor receptor (P00533 whole entry): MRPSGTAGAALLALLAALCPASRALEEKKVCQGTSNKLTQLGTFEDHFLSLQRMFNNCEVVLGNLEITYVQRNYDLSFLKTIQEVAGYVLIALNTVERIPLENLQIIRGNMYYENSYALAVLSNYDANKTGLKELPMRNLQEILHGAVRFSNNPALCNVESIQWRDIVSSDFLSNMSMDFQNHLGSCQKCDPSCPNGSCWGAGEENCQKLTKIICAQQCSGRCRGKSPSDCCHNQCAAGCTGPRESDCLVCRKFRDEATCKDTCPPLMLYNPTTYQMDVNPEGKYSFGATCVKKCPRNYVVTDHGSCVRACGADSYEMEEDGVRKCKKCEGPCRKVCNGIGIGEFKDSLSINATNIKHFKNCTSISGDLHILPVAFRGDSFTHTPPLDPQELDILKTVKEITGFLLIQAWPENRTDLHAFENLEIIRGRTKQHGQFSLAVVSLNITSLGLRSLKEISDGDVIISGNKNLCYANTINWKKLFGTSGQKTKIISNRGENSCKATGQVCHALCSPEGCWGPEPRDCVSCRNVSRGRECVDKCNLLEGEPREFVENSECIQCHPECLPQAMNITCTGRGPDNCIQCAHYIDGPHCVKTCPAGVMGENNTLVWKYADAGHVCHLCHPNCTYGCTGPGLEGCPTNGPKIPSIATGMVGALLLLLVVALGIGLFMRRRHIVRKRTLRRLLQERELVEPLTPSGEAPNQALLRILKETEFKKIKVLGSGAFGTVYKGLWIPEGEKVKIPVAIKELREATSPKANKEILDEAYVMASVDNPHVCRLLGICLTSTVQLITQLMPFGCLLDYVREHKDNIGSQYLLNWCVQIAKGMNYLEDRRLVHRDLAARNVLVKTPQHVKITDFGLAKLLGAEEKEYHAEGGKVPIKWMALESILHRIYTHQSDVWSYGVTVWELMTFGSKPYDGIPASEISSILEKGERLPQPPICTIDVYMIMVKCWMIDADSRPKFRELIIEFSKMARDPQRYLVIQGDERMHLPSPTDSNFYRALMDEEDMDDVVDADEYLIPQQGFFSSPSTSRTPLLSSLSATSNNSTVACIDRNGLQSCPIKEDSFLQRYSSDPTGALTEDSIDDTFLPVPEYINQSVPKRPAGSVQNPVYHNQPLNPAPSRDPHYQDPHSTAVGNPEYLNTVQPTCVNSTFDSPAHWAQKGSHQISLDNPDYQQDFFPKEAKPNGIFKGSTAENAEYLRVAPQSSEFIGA
In experiment [4] the target is T1, Dual specificity mitogen-activated protein kinase kinase 5 (Homo sapiens, UniProt Q13163).
T1 sequence (Q13163 whole entry): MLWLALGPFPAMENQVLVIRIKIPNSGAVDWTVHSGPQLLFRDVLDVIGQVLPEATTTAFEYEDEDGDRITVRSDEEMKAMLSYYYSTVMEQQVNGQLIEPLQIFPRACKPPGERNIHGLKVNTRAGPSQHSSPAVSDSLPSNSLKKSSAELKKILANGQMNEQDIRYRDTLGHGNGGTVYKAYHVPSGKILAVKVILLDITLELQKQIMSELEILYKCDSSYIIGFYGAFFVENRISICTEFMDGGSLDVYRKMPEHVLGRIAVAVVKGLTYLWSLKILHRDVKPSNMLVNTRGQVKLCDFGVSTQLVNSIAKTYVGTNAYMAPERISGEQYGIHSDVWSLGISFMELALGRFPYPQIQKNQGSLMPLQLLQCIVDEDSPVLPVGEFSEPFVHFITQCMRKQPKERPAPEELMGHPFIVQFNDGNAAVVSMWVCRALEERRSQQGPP

Experiment [5] concerns the target T2, Mitogen-activated protein kinase kinase kinase 6 (Homo sapiens, UniProt O95382).
T2 sequence (O95382 whole entry): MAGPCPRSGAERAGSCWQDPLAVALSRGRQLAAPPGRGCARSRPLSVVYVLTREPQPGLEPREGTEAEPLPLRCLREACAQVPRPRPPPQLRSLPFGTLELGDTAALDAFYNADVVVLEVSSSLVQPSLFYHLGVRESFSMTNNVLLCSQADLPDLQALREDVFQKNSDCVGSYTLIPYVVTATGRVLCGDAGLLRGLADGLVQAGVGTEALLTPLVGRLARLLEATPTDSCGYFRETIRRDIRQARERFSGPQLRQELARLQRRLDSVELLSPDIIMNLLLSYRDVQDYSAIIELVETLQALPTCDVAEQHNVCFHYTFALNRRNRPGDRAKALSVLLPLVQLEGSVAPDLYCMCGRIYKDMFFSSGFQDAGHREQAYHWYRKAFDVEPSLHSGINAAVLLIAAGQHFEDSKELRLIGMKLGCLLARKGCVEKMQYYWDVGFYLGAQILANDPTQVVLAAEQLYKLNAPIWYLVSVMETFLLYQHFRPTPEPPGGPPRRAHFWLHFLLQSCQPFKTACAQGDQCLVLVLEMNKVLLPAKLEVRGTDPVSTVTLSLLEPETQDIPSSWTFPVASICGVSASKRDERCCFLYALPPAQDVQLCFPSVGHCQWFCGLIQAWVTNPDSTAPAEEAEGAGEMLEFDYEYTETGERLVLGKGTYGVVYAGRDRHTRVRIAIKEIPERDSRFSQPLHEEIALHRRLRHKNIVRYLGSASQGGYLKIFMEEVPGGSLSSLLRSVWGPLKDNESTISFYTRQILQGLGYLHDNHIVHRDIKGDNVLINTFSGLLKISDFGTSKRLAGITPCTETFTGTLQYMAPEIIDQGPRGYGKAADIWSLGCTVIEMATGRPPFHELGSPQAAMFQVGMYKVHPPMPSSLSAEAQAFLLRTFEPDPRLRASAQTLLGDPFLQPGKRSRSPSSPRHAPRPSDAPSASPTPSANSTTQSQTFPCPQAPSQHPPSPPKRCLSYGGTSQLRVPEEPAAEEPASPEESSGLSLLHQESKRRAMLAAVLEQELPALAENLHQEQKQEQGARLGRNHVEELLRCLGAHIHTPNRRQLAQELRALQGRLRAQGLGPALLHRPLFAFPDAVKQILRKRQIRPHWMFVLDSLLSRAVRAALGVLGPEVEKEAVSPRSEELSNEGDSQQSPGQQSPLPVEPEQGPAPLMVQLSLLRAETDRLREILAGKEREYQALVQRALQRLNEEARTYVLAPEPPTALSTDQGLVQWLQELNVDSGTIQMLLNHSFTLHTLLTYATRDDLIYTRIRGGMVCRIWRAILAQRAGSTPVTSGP

The target of experiment [6] is T3, MAP kinase-activated protein kinase 5 (Homo sapiens, UniProt Q8IW41).
T3 sequence (Q8IW41 whole entry): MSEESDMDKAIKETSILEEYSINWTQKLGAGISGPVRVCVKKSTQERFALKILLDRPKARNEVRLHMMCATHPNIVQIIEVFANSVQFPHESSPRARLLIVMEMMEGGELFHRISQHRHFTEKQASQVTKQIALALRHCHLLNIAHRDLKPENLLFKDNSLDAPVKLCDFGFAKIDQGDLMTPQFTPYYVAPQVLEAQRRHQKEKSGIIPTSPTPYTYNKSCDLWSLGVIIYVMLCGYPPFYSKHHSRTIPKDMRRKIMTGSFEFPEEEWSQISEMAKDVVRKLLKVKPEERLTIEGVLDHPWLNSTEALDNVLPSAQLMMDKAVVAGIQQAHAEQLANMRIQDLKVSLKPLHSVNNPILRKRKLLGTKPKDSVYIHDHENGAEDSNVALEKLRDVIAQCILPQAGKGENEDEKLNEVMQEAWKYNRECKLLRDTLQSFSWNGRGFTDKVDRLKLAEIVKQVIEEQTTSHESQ

Experiment [7] addresses MAP/microtubule affinity-regulating kinase 3 (Homo sapiens, UniProt P27448).
Experiment [8] addresses Ribosomal protein S6 kinase alpha-3 (Homo sapiens, UniProt P51812).
Experiment [9] deals with T4, STE20-related kinase adapter protein alpha (Homo sapiens, UniProt Q7RTN6).
T4 sequence (Q7RTN6 whole entry): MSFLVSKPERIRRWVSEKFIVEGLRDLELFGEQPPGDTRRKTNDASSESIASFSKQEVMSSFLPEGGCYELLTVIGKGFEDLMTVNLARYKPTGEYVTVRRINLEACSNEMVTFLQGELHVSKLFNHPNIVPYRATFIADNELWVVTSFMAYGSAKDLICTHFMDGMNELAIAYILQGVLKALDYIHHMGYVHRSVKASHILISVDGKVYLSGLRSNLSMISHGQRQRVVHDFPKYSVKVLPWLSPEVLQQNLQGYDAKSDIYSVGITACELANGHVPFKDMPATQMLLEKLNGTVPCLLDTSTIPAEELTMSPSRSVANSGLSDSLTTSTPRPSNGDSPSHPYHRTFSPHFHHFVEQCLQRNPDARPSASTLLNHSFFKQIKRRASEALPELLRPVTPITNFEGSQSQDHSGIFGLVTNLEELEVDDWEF

Experiment [10] concerns the target Tyrosine-protein kinase Yes (Homo sapiens, UniProt P07947).
Also: in the data inactive means no Kd found up to 30 µM.

Chain of Ribosomal protein S6 kinase alpha-3 (P51812 whole entry): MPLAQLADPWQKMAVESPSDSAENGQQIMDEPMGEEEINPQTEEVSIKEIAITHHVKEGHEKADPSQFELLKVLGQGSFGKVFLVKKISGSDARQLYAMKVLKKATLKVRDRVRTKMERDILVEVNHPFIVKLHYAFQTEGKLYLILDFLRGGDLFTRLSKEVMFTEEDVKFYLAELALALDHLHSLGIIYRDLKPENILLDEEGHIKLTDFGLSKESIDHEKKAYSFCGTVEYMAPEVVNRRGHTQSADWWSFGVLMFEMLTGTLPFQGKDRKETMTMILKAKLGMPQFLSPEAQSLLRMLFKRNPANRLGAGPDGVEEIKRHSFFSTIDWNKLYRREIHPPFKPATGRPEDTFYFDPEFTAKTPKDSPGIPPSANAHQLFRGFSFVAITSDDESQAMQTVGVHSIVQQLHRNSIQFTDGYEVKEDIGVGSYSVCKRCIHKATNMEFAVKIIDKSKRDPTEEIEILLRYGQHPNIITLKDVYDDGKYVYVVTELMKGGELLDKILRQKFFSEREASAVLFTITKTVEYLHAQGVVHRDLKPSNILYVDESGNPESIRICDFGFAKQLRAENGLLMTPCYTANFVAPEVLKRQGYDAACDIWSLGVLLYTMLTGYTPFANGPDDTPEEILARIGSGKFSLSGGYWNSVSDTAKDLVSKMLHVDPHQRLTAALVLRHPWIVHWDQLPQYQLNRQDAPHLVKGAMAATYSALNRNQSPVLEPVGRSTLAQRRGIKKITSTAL
Chain of MAP/microtubule affinity-regulating kinase 3 (P27448 whole entry): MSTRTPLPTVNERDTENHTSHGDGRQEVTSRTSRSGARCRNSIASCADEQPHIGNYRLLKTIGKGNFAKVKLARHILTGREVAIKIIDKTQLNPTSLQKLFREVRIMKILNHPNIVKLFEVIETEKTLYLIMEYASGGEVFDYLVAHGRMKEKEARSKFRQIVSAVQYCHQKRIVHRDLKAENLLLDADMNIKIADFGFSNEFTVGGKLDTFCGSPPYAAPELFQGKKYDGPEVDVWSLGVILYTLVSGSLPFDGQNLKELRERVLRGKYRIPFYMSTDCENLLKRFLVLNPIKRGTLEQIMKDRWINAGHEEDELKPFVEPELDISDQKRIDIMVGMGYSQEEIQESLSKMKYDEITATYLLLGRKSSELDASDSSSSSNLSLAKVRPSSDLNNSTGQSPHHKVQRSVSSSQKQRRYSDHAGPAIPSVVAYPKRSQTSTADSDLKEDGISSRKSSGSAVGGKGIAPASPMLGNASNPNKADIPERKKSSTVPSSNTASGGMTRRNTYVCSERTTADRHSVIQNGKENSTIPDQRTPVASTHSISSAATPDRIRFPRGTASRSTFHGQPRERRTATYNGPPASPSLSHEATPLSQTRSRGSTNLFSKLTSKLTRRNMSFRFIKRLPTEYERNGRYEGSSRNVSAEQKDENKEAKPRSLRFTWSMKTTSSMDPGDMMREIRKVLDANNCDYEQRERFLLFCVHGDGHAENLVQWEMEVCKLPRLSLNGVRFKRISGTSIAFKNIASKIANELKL
Chain of Tyrosine-protein kinase Yes (P07947 whole entry): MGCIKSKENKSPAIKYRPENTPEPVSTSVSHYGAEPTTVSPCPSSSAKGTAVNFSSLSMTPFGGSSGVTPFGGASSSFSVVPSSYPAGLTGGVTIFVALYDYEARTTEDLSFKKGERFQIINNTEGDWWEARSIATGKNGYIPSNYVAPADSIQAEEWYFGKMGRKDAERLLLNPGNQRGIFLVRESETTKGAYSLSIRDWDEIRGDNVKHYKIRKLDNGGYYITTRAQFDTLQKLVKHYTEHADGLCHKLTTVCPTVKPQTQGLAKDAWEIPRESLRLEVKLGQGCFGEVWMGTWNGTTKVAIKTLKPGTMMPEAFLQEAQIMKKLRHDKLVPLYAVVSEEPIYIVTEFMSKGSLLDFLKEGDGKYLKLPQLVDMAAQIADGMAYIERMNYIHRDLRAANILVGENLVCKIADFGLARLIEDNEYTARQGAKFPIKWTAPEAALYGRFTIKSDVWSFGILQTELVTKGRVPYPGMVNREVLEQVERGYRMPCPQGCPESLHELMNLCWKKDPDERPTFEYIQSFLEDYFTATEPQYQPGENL

In the case of `Cn1cc(-c2cnn3c(N)c(Br)c([C@@H]4CCCNC4)nc23)cn1` [SCH-900776], the Kd in experiment [1] was > 30 µM (inactive); in experiment [2], > 30 µM (inactive); in [3], > 30 µM (inactive); in [4], 0.609 µM (active); in experiment [5], > 30 µM (inactive); in experiment [6] it was > 30 µM (inactive). The dissociation constant (Kd) in experiment [7] is 1.93 µM (active); in [8], > 30 µM (inactive); in [9], > 30 µM (inactive); in [10], > 30 µM (inactive).

For `CO[C@H]1C[C@@H]2CC[C@@H](C)[C@@](O)(O2)C(=O)C(=O)N2CCCC[C@H]2C(=O)O[C@H]([C@H](C)C[C@@H]2CC[C@@H](O)[C@H](OC)C2)CC(=O)[C@H](C)/C=C(\C)[C@@H](O)[C@@H](OC)C(=O)[C@H](C)C[C@H](C)/C=C/C=C/C=C/1C` [SIROLIMUS], the Kd in experiment [1], in [2], in experiment [3], in [4], in [5] and in [6] was > 30 µM (inactive) throughout. Besides, the Kd in experiment [7], in experiment [8], in [9] and in [10] was > 30 µM (inactive) in each case.

Turning to `CO[C@H]1C[C@@H]2CC[C@@H](C)[C@@](O)(O2)C(=O)C(=O)N2CCCC[C@H]2C(=O)O[C@H]([C@H](C)C[C@@H]2CC[C@@H](OC(=O)C(C)(CO)CO)[C@H](OC)C2)CC(=O)[C@H](C)/C=C(\C)[C@@H](O)[C@@H](OC)C(=O)[C@H](C)C[C@H](C)/C=C/C=C/C=C/1C` [TEMSIROLIMUS], the Kd in [1], in experiment [2], in experiment [3], in [4], in experiment [5] and in [6] was > 30 µM (inactive) throughout. Moreover, the Kd in [7], in experiment [8], in experiment [9] and in [10] was > 30 µM (inactive) each time.

As for `COc1cc2c(Nc3ccc(Cl)c(Cl)c3F)ncnc2cc1OC[C@@H]1C[C@@H]2CN(C)C[C@@H]2C1` [TESEVATINIB], the Kd was > 30 µM (inactive) in experiment [1]; > 30 µM (inactive) in [2]; 0.038 µM (active) in experiment [3]; 65.7 µM (active) in experiment [4]; > 30 µM (inactive) in experiment [5]; > 30 µM (inactive) in experiment [6]. Besides, the Kd in experiment [7] is > 30 µM (inactive); in experiment [8] it was > 30 µM (inactive); in [9], > 30 µM (inactive); in experiment [10], 3.94 µM (active).

On to `O=C(Cc1ccc(-c2ccc(OCCN3CCOCC3)cc2)cn1)NCc1ccccc1` [TIRBANIBULIN], for which the Kd in [1], in experiment [2], in experiment [3], in [4], in experiment [5] and in [6] was > 30 µM (inactive) each time. Further, the Kd in experiment [7], in experiment [8], in [9] and in [10] was > 30 µM (inactive) throughout.

In the case of `O=C1NC(=O)[C@@H](c2cn3c4c(cccc24)CCC3)[C@@H]1c1c[nH]c2ccccc12` [TIVANTINIB], the Kd in [1], in [2], in [3], in experiment [4], in experiment [5] and in experiment [6] was > 30 µM (inactive) throughout. Also, the Kd in experiment [7], in [8], in [9] and in [10] was > 30 µM (inactive) throughout.
